Patent publication US8895613B2 (priority 2013, dated 2014)

Experiments:
[1] = molecular target: neuraminidase of influenza virus B/Pert/211/2001 (197D) (Influenza B virus, UniProt Q3S340); format: biochemical; details: read-out: IC50, nM (number of experiments)
[2] = system: highly pathogenic strain Ia/duck/MN/1525/81 (H5N1); assay: microbe, parasite or virus in culture; format: cell-based, influenza virus Ia/duck/MN/1525/81 (H5N1) in MDCK cells; details: for IC50: Influenza A virus, H5N1, MDCK
[3] = molecular target: neuraminidase of influenza virus B/Brisbane/60/2008 (Influenza B virus, UniProt C0LT34); format: biochemical; details: read-out: IC50, nM (number of experiments)
[4] = molecular target: neuraminidase of influenza virus A/California/04/09 (Influenza A virus, UniProt C3W5S3); format: biochemical; details: for IC50: read-out: neuraminidase activity IC50
[5] = system: virus strain Ia/California/07/09 (H1N1); assay: microbe, parasite or virus in culture; format: cell-based, influenza virus Ia/California/07/09 (H1N1) in MDCK cells; details: for IC50: Influenza A virus, H1N1, MDCK
[6] = molecular target: neuraminidase of influenza virus A/Aichi/2/69 (H3N2) (Influenza A virus, UniProt Q75VQ4); format: biochemical; details: read-out: IC50, nM (number of experiments)
[7] = molecular target: neuraminidase of influenza virus A/California/07/09 (H1N1) (Influenza A virus, UniProt C3W6G3); format: biochemical; details: read-out: IC50, nM (number of experiments)
[8] = system: influenza virus A/Aichi/2/69 (H3N2); parameters: species or system mice; details: mouse, in vivo; for efficiency of treating influenza pneumonia in mice: po, 25 mg/kg/day

With `CCC(CC)O[C@@H]1C=C(C(=O)O)C[C@H](NC(=N)N)[C@H]1NC(=O)CF` [1.1, (3R,4R,5S)-5-guanidino-4-fluoroacetamido-3-(pentan-3-yloxy)cyclohex-1-enecarboxylic acid] the IC50 [1] was 2.08 nM, the “activity higher than that of Oseltamivir carboxylate, times” value [2] was 24 and the “activity higher than that of Zanamivir (Zan), times” value [2] was 16. For the same molecule, the IC50 [2] was 3.2 µM, the IC50 [3] was 1.27 nM and the “times more active than A2” value [4] was 4. For the same molecule, the “times more active than A4” value [4] was 400, the “more active than Oseltamivir carboxylate (A2) by factor” value [5] was 13 and the “more active than Zanamivir (Zan) by factor” value [5] was 20. For the same molecule, the IC50 [5] was 0.78 µM, the IC50 [6] was 0.69 nM and the IC50 [7] was 0.18 nM.

With `CCOC(=O)C1=C[C@@H](OC(CC)CC)[C@H](NC(=O)CF)[C@@H](NC(=N)N)C1` [1.3, ethyl (3R,4R,5S)-5-guanidino-4-fluoroacetamido-3-(pentan-3-yloxy)cyclohex-1-enecarboxylate] the “efficiency of treating influenza pneumonia in mice” value [8] was “high efficiency”.

`CCC(CC)O[C@@H]1C=C(C(=O)O)C[C@H](NC(=N)N)[C@H]1NC(=O)C(F)F` [1.4, (3R,4R,5S)-5-guanidino-4-difluoroacetamido-3-(pentan-3-yloxy)cyclohex-1-enecarboxylic acid] was tested, and the “times more active than A2” value [4] was 2.7 and the “times more active than A4” value [4] was 267.

In the case of `CCOC(=O)C1=C[C@@H](OC(CC)CC)[C@H](NC(=O)C(F)F)[C@@H](NC(=N)N)C1` [1.6, ethyl (3R,4R,5S)-5-guanidino-4-difluoroacetamido-3-(pentan-3-yloxy)cyclohex-1-enecarboxylate], the “efficiency of treating influenza pneumonia in mice” value [8] is reported as “high efficiency”.

In the case of `CCC(CC)O[C@@H]1C=C(C(=O)OC2CCCCC2)C[C@H](NC(=N)N)[C@H]1NC(=O)C(F)F` [1.9, 2-cyclohexyl (3R,4R,5S)-5-guanidino-4-(2,2-difluoroacetamido)-3-(pentan-3-yloxy)cyclohex-1-enecarboxylate], the IC50 [4] is reported as < 0.001 µM.

For `CCC(CC)O[C@@H]1C=C(C(=O)OCCc2ccccc2)C[C@H](NC(=N)N)[C@H]1NC(=O)C(F)F` [1.10, 2-phenylethyl (3R,4R,5S)-5-guanidino-4-(2,2-difluoroacetamido)-3-(pentan-3-yloxy)cyclohex-1-enecarboxylate], the IC50 [4] was < 0.001 µM.

`CCC(CC)O[C@@H]1C=C(C(=O)OCCc2cccnc2)C[C@H](NC(=N)N)[C@H]1NC(=O)C(F)F` [1.11, 2-pyridin-3-ylethyl (3R,4R,5S)-5-guanidino-4-(2,2-difluoroacetamido)-3-(pentan-3-yloxy)cyclohex-1-enecarboxylate] was tested, and the IC50 [4] was < 0.001 µM.

In the case of `CCC(CC)O[C@@H]1C=C(C(=O)OCCOC)C[C@H](NC(=N)N)[C@H]1NC(=O)C(F)F` [1.12, 2-methoxyethyl (3R,4R,5S)-5-guanidino-4-(2,2-difluoroacetamido)-3-(pentan-3-yloxy)cyclohex-1-enecarboxylate], the IC50 [4] is reported as < 0.001 µM.

With `CCC(CC)O[C@@H]1C=C(C(=O)O)C[C@H](N)[C@H]1NC(C)=O` [A2, (3R,4R,5S)-5-amino-4-acetamido-3-(pentan-3-yloxy)cyclohex-1-enecarboxylic acid, reference compound] the IC50 [2] was 77.5 µM and the IC50 [5] was 9.9 µM.

With `CCOC(=O)C1=C[C@@H](OC(CC)CC)[C@H](NC(C)=O)[C@@H](N)C1` [Tamiflu, reference compound] the “death of treated animals by the time the last animal of virus control group died” value [8] was “prevented completely” and the “weight loss of treated animals” value [8] was “did not lose weight”.

Molecule `CC(=O)NC1C(NC(=N)N)C=C(C(=O)O)OC1C(O)C(O)CO` [Zan, 5-Acetamido-2,3-didehydro-3,4,5-trideoxy-4-guanidino-alpha-D-glycero-D-galacto-2-nonulopyranosonic acid, reference compound] has an IC50 [2] of 51.2 µM and an IC50 [5] of 16 µM.
